Results on 26 molecules are retold here after article PMC3361267 (Journal of Medicinal Chemistry, 2012).

Entries after “also recorded” stand apart in the source; their conditions may differ. Where two headings read alike, the source gives them in different places. *1 amine or outer side, *2 acyl side, *3 side chain or, on linkers, in order; H or OH if unused. Where a SMILES comes first, the peptide text is derived from it. Bridges are numbered along the chain shown (N, C = ends). [ ]: non-standard residue; d: D form. X1 = O=C([C@@H](N[*:1])c1c([*:3])[nH]c2ccccc12)[*:2]; Leu(4R-OH,5-OH) = C[C@](O)(CO)C[C@H](N)C(=O)O; cisHyp = O=C(O)[C@@H]1C[C@H](O)CN1

For data set [1], the target named is T1, OATP2B1 (Homo sapiens, UniProt O94956).
T1 sequence (O94956 1-709): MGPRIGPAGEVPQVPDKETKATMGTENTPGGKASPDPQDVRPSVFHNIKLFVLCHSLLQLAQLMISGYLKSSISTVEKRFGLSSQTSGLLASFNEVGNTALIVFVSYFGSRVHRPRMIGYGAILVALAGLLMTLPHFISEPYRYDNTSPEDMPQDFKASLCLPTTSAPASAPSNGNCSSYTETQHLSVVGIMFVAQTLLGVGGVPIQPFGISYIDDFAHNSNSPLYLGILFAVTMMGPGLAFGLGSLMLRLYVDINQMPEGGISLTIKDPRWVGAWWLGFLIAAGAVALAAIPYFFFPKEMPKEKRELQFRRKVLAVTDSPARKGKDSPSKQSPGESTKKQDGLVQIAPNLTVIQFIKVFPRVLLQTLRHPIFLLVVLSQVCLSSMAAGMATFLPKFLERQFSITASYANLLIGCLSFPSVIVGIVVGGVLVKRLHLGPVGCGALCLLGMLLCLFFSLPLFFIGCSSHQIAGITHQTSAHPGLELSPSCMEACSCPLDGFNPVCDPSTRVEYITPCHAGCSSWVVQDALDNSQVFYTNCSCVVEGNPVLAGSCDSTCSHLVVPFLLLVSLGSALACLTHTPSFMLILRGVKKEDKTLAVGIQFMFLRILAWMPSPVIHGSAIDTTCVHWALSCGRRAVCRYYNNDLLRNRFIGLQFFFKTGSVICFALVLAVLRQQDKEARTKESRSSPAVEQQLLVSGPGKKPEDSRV
Particulars: for classification as OATP2B1 inhibitor/stimulator (single-point): 20 μM.

In another data set the target is T2, OATP1B1 (Homo sapiens, UniProt Q9Y6L6).
T2 sequence (Q9Y6L6 1-691): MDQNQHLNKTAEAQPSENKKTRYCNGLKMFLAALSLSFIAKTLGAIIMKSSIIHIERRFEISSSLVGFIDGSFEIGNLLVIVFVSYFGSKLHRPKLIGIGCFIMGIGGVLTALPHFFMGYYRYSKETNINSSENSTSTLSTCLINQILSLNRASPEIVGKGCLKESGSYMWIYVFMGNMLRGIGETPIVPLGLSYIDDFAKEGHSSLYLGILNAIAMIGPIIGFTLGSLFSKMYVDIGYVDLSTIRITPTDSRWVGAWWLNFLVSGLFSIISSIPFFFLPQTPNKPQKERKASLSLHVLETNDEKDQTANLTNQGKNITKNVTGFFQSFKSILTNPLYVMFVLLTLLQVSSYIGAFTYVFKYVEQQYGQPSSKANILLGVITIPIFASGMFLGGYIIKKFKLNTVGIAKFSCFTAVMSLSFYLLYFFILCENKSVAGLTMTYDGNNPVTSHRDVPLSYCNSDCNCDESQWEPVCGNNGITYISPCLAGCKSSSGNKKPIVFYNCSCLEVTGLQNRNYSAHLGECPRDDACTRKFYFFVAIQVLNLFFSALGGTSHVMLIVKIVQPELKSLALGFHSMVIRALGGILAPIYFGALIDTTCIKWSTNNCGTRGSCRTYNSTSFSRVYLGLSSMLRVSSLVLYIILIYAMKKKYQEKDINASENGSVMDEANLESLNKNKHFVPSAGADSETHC

Another data set concerns the target T3, OATP1B3 (Homo sapiens, UniProt Q9NPD5).
T3 sequence (Q9NPD5 1-702): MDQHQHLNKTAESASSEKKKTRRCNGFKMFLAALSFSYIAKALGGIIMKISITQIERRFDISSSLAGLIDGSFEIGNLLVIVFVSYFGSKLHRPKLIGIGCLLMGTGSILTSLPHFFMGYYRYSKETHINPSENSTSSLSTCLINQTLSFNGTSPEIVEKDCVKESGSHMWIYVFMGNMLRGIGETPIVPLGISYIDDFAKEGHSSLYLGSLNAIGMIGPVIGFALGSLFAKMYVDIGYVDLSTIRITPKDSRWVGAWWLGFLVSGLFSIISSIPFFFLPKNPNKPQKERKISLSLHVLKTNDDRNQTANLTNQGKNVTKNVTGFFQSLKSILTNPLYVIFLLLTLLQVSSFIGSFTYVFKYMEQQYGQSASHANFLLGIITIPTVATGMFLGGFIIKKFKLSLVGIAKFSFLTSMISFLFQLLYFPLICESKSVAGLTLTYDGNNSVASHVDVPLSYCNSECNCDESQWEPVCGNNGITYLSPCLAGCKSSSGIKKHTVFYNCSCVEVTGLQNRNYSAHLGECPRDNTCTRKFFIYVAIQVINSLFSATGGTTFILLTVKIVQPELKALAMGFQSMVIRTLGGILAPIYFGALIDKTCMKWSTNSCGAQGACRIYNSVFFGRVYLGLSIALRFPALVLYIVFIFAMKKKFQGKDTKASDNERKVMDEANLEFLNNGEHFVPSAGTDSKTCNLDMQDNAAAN
Particulars: for classification as OATP1B3 inhibitor/stimulator (single-point): 20 μM.

Data set [2] concerns OATP1B1, OATP1B3, and OATP2B1. The experiment in a line: Classification of specific and general OATP inhibitors. The settings on record: 20 μM, inhibitor = at least 50% inhibition.
For the next data set, the system named is BCRP. The settings on record: cited from earlier work.
The target in data set [3] is T1, OATP2B1. The experiment in a line: Transport kinetics of substrate uptake in OATP2B1-HEK293 cells. It is filed as cell-based.
[4] abbreviates: OATP2B1 mediated uptake, HEK293.

With `N[C@@H]1C[C@H]1c1ccccc1` (racemic) [Tranylcypromine], the “OATP2B1 Inhib %” value on OATP2B1 [1] came out at 15.5%. Besides, at OATP1B1, the “OATP1B1 Inhib %” value is reported as -9.5%. Further, the “OATP1B3 Inhib %” value at OATP1B3 is recorded as -9.3%.
In the case of `OCCN1CCN(CCC=C2c3ccccc3Sc3ccc(C(F)(F)F)cc32)CC1` [Flupenthixol], the “OATP2B1 Inhib %” value at OATP2B1 [1] (human) stood at 9.5%. For the same molecule, at OATP1B3 (human), the “OATP1B3 Inhib %” value was determined as 13.5%.
Turning to `CCOc1ccc(-c2nc3cc(-c4nc5cc(N6CCN(C)CC6)ccc5[nH]4)ccc3[nH]2)cc1` [Hoechst 33342], the “OATP inhibitor classification based on single-point inhibition assays” value (“OATP inhibitor classification based” below) in data set [2] was “OATP1B3, only three specific inhibitors”.
As to `COc1ccc2c3c([nH]c2c1)[C@H](CC(C)C)N1C(=O)[C@H](CCC(=O)OC(C)(C)C)NC(=O)[C@@H]1C3` [KO143], the “concentration that completely inhibits BCRP” value with BCRP was 1 µM.
For `CN(C)c1ccc(C=Cc2cc[n+](C)cc2)cc1` [N-methylpyridinium, ASP+], on OATP2B1 [1], the “OATP2B1 Inhib %” value worked out at 12.8%. Also, the “OATP1B1 Inhib %” value at OATP1B1 was found to be 27.9%. Further, on OATP1B3, the “OATP1B3 Inhib %” value is -2.3%.
The matching figures for `O=C(O)C(=O)O.[NH-][C@@H]1CCCC[C@H]1[NH-].[Pt+2]` [Oxaliplatin]: 8.2%, 13.0% and 9.9%.
As for `C[C@@H]1NC(=O)[C@H](C[C@@](C)(O)CO)NC(=O)[C@H]2NC(=O)[C@H](C)NC(=O)[C@@H]3C[C@H](O)CN3C(=O)[C@@H](CSc3[nH]c4ccccc4c32)NC(=O)[C@H]([C@@H](C)O)NC1=O` [Phalloidin] (cyclo(AT[dC][cisHyp]A[X1][Leu(4R-OH,5-OH)]); thioether 3-6), the “OATP2B1 Inhib %” value on OATP2B1 [1] (human) is reported as 24.1%. At OATP1B3 (human), the “OATP1B3 Inhib %” value was 36.2%.
As to `COC(=O)N[C@H](C(=O)N[C@@H](Cc1ccccc1)[C@@H](O)CN(Cc1ccc(-c2ccccn2)cc1)NC(=O)[C@@H](NC(=O)OC)C(C)(C)C)C(C)(C)C` [atazanavir, Atazanavir], in data set [2], the “OATP inhibitor classification based” value is reported as “general OATP inhibitors”.
For `Clc1ccccc1C(c1ccccc1)(c1ccccc1)n1ccnc1` [clotrimazole, Clotrimazole], at OATP1B3, the “classification as OATP1B3 inhibitor/stimulator (single-point)” value is listed as “stimulator”.
In the case of `COc1cccc2c1C(=O)c1c(O)c3c(c(O)c1C2=O)C[C@@](O)(C(=O)CO)C[C@@H]3O[C@H]1C[C@H](N)[C@H](O)[C@H](C)O1` [doxorubicin, Doxorubicin], the “OATP inhibitor classification based” value in data set [2] is given as “specific inhibitors of one of the OATP transporters”.
Regarding `C#Cc1cccc(Nc2ncnc3cc(OCCOC)c(OCCOC)cc23)c1` [erlotinib, Erlotinib], in data set [2], the “OATP inhibitor classification based” value was “specific inhibitors of one of the OATP transporters”.
By Km is commonly meant the substrate concentration at which the rate is half of its maximum. For `C[C@]12CC[C@@H]3c4ccc(OS(=O)(=O)O)cc4CC[C@H]3[C@@H]1CCC2=O` [estrone-3-sulfate], on OATP2B1 [3] (setting [4]), the Km was 38.2 ± 10.2 µM and the Vmax stood at 455.2 ± 55.36 pmol/mg protein/min. Moreover, the “mean uptake of model substrate in OATP2B1 expressing HEK293 cells compared to passive uptake in mock-transfected cells” value at OATP2B1 [3] (n = 51 experiments) is 44 times.
Consider `CC(NCCC(c1ccccc1)c1ccccc1)c1ccccc1` (stereo not drawn) [fendiline, Fendiline], for which the “classification as OATP2B1 inhibitor/stimulator (single-point)” value at OATP2B1 [1] was “stimulate”.
Regarding `COc1ccc2c(c1)c(CC(=O)O)c(C)n2C(=O)c1ccc(Cl)cc1` [indometacin, Indomethacin], the “OATP inhibitor classification based” value in data set [2] is listed as “specific inhibitors of one of the OATP transporters”.
`CC[C@H](C)C(=O)O[C@H]1C[C@@H](C)C=C2C=C[C@H](C)[C@H](CC[C@@H](O)C[C@@H](O)CC(=O)O)[C@H]21` [lovastatin acid]: in data set [2], the “OATP inhibitor classification based” value is “specific OATP1B1 inhibitors”.
Still for that read-out and setting: the entry for `O=C1c2c(O)ccc(O)c2C(=O)c2c(NCCNCCO)ccc(NCCNCCO)c21` [mitoxantrone, Mitoxantrone] is “OATP1B3, only three specific inhibitors”.
Turning to `CCc1nn(CCCN2CCN(c3cccc(Cl)c3)CC2)c(=O)n1CCOc1ccccc1` [nefazodone, Nefazodone], the “classification as OATP2B1 inhibitor/stimulator (single-point)” value on OATP2B1 [1] was “inhibitor”. Also, the “classification as OATP1B1 inhibitor/stimulator (single-point)” value at OATP1B1 (20 μM) was “not interacting”. Also, at OATP1B3, the “classification as OATP1B3 inhibitor/stimulator (single-point)” value is given as “inhibitor”.
Turning to `C[C@@H]1[C@H](O)[C@@H](C)/C=C/C=C/CC/C=C/C=C/C=C/C=C/C(O[C@H]2O[C@H](C)[C@@H](O)[C@H](N)[C@@H]2O)CC2O[C@](O)(CC(O)C(O)CCC(O)CC(O)CC(O)CC(=O)O[C@H]1C)CC(O)C2C(=O)O` (stereo partly drawn) [nystatin, Nystatin], the “OATP2B1 Inhib %” value on OATP2B1 [1] is 23.4%. Besides, the “OATP1B3 Inhib %” value at OATP1B3 stood at 74.9%.
`CC[C@H](C)C(=O)O[C@H]1C[C@H](O)C=C2C=C[C@H](C)[C@H](CC[C@@H](O)C[C@@H](O)CC(=O)O)[C@H]21` [pravastatin, Pravastatin]: the entries for the “OATP inhibitor classification based” value in data set [2] and in data set [2] (listed as pravastatin acid) were “specific inhibitors of one of the OATP transporters” and “specific OATP1B1 inhibitors”, respectively.
Regarding `CC(=O)[C@H]1CC[C@H]2[C@@H]3CCC4=CC(=O)CC[C@]4(C)[C@H]3CC[C@]12C` [progesterone, Progesterone], the “classification as OATP2B1 inhibitor/stimulator (single-point)” value on OATP2B1 [1] was “stimulate”.
On to `CCC(C)(C)C(=O)O[C@H]1C[C@@H](C)C=C2C=C[C@H](C)[C@H](CC[C@@H](O)C[C@@H](O)CC(=O)O)[C@H]21` [simvastatin acid], for which the “OATP inhibitor classification based” value in data set [2] was “specific OATP1B1 inhibitors”.
Still for that read-out and setting: the entry for `O=C(O)c1cc(/N=N/c2ccc(S(=O)(=O)Nc3ccccn3)cc2)ccc1O` [sulfasalazine, Sulfasalazine] is “general OATP inhibitors”.
On to `C[C@]12CC[C@H]3[C@@H](CCC4=CC(=O)CC[C@@]43C)[C@@H]1CC[C@@H]2O` [testosterone, Testosterone], for which the “classification as OATP2B1 inhibitor/stimulator (single-point)” value at OATP2B1 [1] was “stimulate”.
For the molecule `CC[C@]1(O)C[C@H]2CN(CCc3c([nH]c4ccccc34)[C@@](C(=O)OC)(c3cc4c(cc3OC)N(C=O)[C@H]3[C@@](O)(C(=O)OC)[C@H](OC(C)=O)[C@]5(CC)C=CCN6CC[C@]43[C@@H]65)C2)C1` [vincristine, Vincristine], the “OATP inhibitor classification based” value is “specific inhibitors of one of the OATP transporters; also recorded: OATP1B3, only three specific inhibitors” in data set [2] and “specific inhibitor of OATP1B3” in data set [2] (listed as Vincristine).
In the case of Olmesartan, at OATP2B1 [1], the “OATP2B1 Inhib %” value is -7.9%.
With “cholecystokinin octapeptide [cholecystokinin octapeptide (CCK-8)]”, the “OATP2B1 Inhib %” value with OATP2B1 [1] is 60.1%. For the same molecule, in the data set with OATP1B3, the “OATP1B3 Inhib %” value is given as 96.9%.
